{
  "source": "the NIST ThermoML archive (doi:10.1016/j.fluid.2017.10.003)",
  "conditions": "101.33 kPa, Liquid",
  "note": "Numbers after ± are expanded uncertainties.",
  "data": [
    {"smiles": "NCCO.O=CO", "note": "[2-hydroxyethylammonium formate]", "values": [
      {"measurement": "viscosity", "setting": "293.15 K", "value": "129 ± 50", "unit": "mPa·s"},
      {"measurement": "viscosity", "setting": "298.15 K", "value": "98.49 ± 27", "unit": "mPa·s"},
      {"measurement": "viscosity", "setting": "303.15 K", "value": "71.9 ± 11", "unit": "mPa·s"},
      {"measurement": "viscosity", "setting": "308.15 K", "value": "56.34 ± 2.8", "unit": "mPa·s"},
      {"measurement": "viscosity", "setting": "313.15 K", "value": "44.88 ± 4.3", "unit": "mPa·s"},
      {"measurement": "viscosity", "setting": "318.15 K", "value": "36.53 ± 3.5", "unit": "mPa·s"},
      {"measurement": "viscosity", "setting": "323.15 K", "value": "30.1 ± 2.9", "unit": "mPa·s"},
      {"measurement": "viscosity", "setting": "328.15 K", "value": "24.92 ± 2.4", "unit": "mPa·s"},
      {"measurement": "viscosity", "setting": "333.15 K", "value": "21 ± 2.1", "unit": "mPa·s"},
      {"measurement": "viscosity", "setting": "338.15 K", "value": "18.98 ± 1.9", "unit": "mPa·s"},
      {"measurement": "viscosity", "setting": "343.15 K", "value": "16.3 ± 1.6", "unit": "mPa·s"},
      {"measurement": "viscosity", "setting": "348.15 K", "value": "13.96 ± 1.4", "unit": "mPa·s"},
      {"measurement": "viscosity", "setting": "353.15 K", "value": "12.1 ± 1.3", "unit": "mPa·s"},
      {"measurement": "viscosity", "setting": "358.15 K", "value": "10.57 ± 1.2", "unit": "mPa·s"},
      {"measurement": "viscosity", "setting": "363.15 K", "value": "9.3 ± 1.1", "unit": "mPa·s"}
    ]},
    {"smiles": "CC(=O)[O-].[NH3+]CCO", "note": "[2-hydroxyethylammonium acetate]", "values": [
      {"measurement": "viscosity", "setting": "293.15 K", "value": 3073, "unit": "mPa·s"},
      {"measurement": "viscosity", "setting": "298.15 K", "value": 1974, "unit": "mPa·s"},
      {"measurement": "viscosity", "setting": "303.15 K", "value": 1306, "unit": "mPa·s"},
      {"measurement": "viscosity", "setting": "308.15 K", "value": 896.3, "unit": "mPa·s"},
      {"measurement": "viscosity", "setting": "313.15 K", "value": 624.5, "unit": "mPa·s"},
      {"measurement": "viscosity", "setting": "318.15 K", "value": "363.72 ± 150", "unit": "mPa·s"},
      {"measurement": "viscosity", "setting": "323.15 K", "value": "271.13 ± 93", "unit": "mPa·s"},
      {"measurement": "viscosity", "setting": "328.15 K", "value": "203.65 ± 58", "unit": "mPa·s"},
      {"measurement": "viscosity", "setting": "333.15 K", "value": "159.15 ± 37", "unit": "mPa·s"},
      {"measurement": "viscosity", "setting": "338.15 K", "value": "123.69 ± 23", "unit": "mPa·s"},
      {"measurement": "viscosity", "setting": "343.15 K", "value": "98.5 ± 14", "unit": "mPa·s"},
      {"measurement": "viscosity", "setting": "348.15 K", "value": "79.76 ± 8.3", "unit": "mPa·s"},
      {"measurement": "viscosity", "setting": "353.15 K", "value": "65.27 ± 5.6", "unit": "mPa·s"},
      {"measurement": "viscosity", "setting": "358.15 K", "value": "52.72 ± 4.6", "unit": "mPa·s"},
      {"measurement": "viscosity", "setting": "363.15 K", "value": "43.69 ± 5", "unit": "mPa·s"}
    ]},
    {"smiles": "CCCC(=O)[O-].[NH3+]CCO", "note": "[2-hydroxy ethylammonium butanoate]", "values": [
      {"measurement": "viscosity", "setting": "293.15 K", "value": 2619, "unit": "mPa·s"},
      {"measurement": "viscosity", "setting": "298.15 K", "value": 1796, "unit": "mPa·s"},
      {"measurement": "viscosity", "setting": "303.15 K", "value": 1260, "unit": "mPa·s"},
      {"measurement": "viscosity", "setting": "308.15 K", "value": 904.36, "unit": "mPa·s"},
      {"measurement": "viscosity", "setting": "313.15 K", "value": 596.88, "unit": "mPa·s"},
      {"measurement": "viscosity", "setting": "318.15 K", "value": "445.06 ± 200", "unit": "mPa·s"},
      {"measurement": "viscosity", "setting": "323.15 K", "value": "335.81 ± 130", "unit": "mPa·s"},
      {"measurement": "viscosity", "setting": "328.15 K", "value": "256.28 ± 85", "unit": "mPa·s"},
      {"measurement": "viscosity", "setting": "333.15 K", "value": "199.67 ± 56", "unit": "mPa·s"},
      {"measurement": "viscosity", "setting": "338.15 K", "value": "153.8 ± 35", "unit": "mPa·s"},
      {"measurement": "viscosity", "setting": "343.15 K", "value": "122.53 ± 22", "unit": "mPa·s"},
      {"measurement": "viscosity", "setting": "348.15 K", "value": "98.65 ± 15", "unit": "mPa·s"},
      {"measurement": "viscosity", "setting": "353.15 K", "value": "80.46 ± 11", "unit": "mPa·s"},
      {"measurement": "viscosity", "setting": "358.15 K", "value": "66.2 ± 8.7", "unit": "mPa·s"},
      {"measurement": "viscosity", "setting": "363.15 K", "value": "53.33 ± 8", "unit": "mPa·s"}
    ]}
  ]
}
